As usually defined, the pIC50 is the IC50 on a negative log10 scale, so that one unit is a factor of ten.

Data set [1] deals with T1, TRF1TRFH:TIN2-FAM interaction (Homo sapiens, UniProt P54274).
T1 construct: encoding residues 47–268, UniProt identifier P54274-1; His6-MBP (TEV-cleavable) (N, cleaved yes); made in house; host or cells: E. coli BL21-CodonPlus(DE3)-RIL (TRF1TRFH); probe peptide from Pepceuticals
T1 sequence (P54274 47-268): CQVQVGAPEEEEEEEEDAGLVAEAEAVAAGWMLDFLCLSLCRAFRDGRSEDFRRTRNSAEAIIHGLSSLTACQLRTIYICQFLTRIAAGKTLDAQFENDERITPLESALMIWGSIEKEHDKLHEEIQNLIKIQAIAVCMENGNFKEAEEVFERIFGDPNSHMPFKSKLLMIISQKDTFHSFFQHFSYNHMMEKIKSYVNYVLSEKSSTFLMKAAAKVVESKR
Kind of data set: Fluorescence polarisation (FP) competition assay, TIN2-FAM displacement. It is filed as binding. To be noted: 0.6 µM TRF1TRFH, 25 nM TIN2-FAM; mean of three independent experiments, 95% CI in parentheses. The protocol:
To complement the biophysical R2KD assay, we developed a fluorescence polarisation (FP) competition assay based on a TIN2TBM peptide labelled with an N-terminal 5(6)-carboxyfluorescein (6-FAM) fluorophore. […] The NMR hit analogues were then titrated against constant concentrations of TRF1TRFH and TIN2-FAM (0.6 µM and 25 nM, respectively).
A TIN2TBM peptide was obtained from Pepceuticals with a 5(6)-carboxyfluorescein (FAM) fluorophore added to the N-terminus for fluorescence studies. To determine the assay window for the FP assay, the TIN2-FAM probe was prepared as a 16-µM stock in aqueous buffer and titrated from 0 to 400 nM against either a constant concentration of TRF1TRFH (0.5 µM in FP buffer) or FP buffer alone (25 mM HEPES-NaOH pH 7.5, 100 mM NaCl, 1 mM TCEP, 0.05% w/v CHAPS). Samples were prepared to a final volume of 10 µL in Packard Proxiplate 384 F plus plates; plates were incubated in darkness at room temperature for 1 h prior to measuring fluorescence intensities and calculating FP values, using a BMG Labtech PHERAstar FSX plate reader with an FP 485 520 520 optic module. A settling time of 0.3 s was used, and the number of flashes was set to 200 for FP measurements. For each plate, a target mP of 35 was set and the gain adjusted on the TIN2-FAM probe control well minus protein.
For the FP competition assay, the unlabelled compounds (from 50-mM DMSO stocks) were first dispensed in duplicate into wells of a Proxiplate 384 F Plus plate using an Echo 550 acoustic liquid handler to give a 13-point concentration range from 0.2 to 500 µM. Wells were then backfilled to 250 nL with DMSO before the addition of 5 µL of 2x TRF1TRFH (0.6 µM final concentration) and 4.75 µL 2x TIN2-FAM (25 nM final concentration). Plates were spun and sealed prior to incubation for 1 h in darkness. FP measurements were then carried out as described above.

Data set [2] in a line: Fragment solubility assay (quantitative 1H NMR). It is filed as physicochemical. The note with it: NMR buffer, overnight incubation, 1H NMR quantified against 1 mM caffeine standard. The protocol:
Aqueous solubility test samples were prepared by adding 3.6 µL compound (50 mM stock in 100% DMSO-d6) to 176.4 µL NMR buffer in a microcentrifuge tube. The samples were incubated overnight and transferred to a 3-mm NMR tube (Bruker, Part No. Z112272). ^1H NMR spectra were recorded, with the DMSO and water signals dampened. 1 mM caffeine (Sigma, C1778 in PBS (pH 7.4) with 1% DMSO-d6) was used as a standard to quantify the ligand signals and determine the concentration of samples.
NMR data were collected on a Bruker Avance Neo 600-MHz spectrometer equipped with a 5 mm TCI-CryoProbe. The ^1H spectrum was referenced to the internal deuterated solvent. The operating frequency for ^1H was 600 MHz. All NMR data were acquired at the temperature of 298 K. All data were acquired and processed using Bruker Topspin 4.0. The quantitative ^1H-NMR spectrum was acquired using a Bruker standard 1D lc1pngppsf2 pulse sequence with 32 scans. The sweep width was 6.2 ppm with O1P set to 8.8 ppm, and the FID contained 16k time-domain data points. Relaxation delay was set to 20 s. Water signal was suppressed.

The structures appear in SMILES notation. pIC50: −log10 of the molar value.

As for `COc1cc(COc2ccc(S(=O)(=O)[O-])c3ccccc23)cc(OC)c1.[Na+]` [Compound 40], the pIC50 in data set [1] is 4.17. Further, the “Kin. Sol.” value in data set [2] amounted to 320 µM.

The values are drawn from paper PMC12635197, “Discovery of first-in-class inhibitors of the TRF1:TIN2 protein:protein interaction by fragment screening” (Scientific Reports, 2025).
